In patent US12617784B2, “AKT inhibitor” (Nanjing Chia Tai Tianqing Pharmaceutical Co., Ltd., priority 2019, dated 2026):

Legend:
AKT1 = AKT1 (Homo sapiens, UniProt P31749); test: In vitro enzyme activity test (HTRF kinEASE TK), AKT1; type: biochemical; details: ATP 2 μM, enzyme 0.6 ng/well, reaction 50 min
Experimental: (§1) Experimental Procedure 2.1 Preparation of Reagents
(§2) 1 mL 1× Kinase Reaction Buffer of Kinase AKT1, AKT2 and AKT3 contain 200 μL 5× Kinase Reaction Buffer, 5 μL 1 M MgCl2, 1 μL 1 M DTT and 794 μL ultrapure water.
(§3) In addition to the control wells, 4 μL of the diluted compound working solutions were added to all reaction wells.
(§4) b) 2 μL of the previously prepared TK-biotin substrate solution was added to all reaction wells.
(§5) c) 2 μL of the previously prepared enzyme solution was added to all reaction wells, except the negative wells. The volume of the negative well was filled with 2 μL of enzyme corresponding to 1× kinase reaction buffer. The plate was sealed with sealing film. After mixing, the plate was incubated at room temperature for 10 min to allow the compound and enzyme to fully combined.
(§6) d) 2 μL of ATP solution was added to all reaction wells to start the kinase reaction.
(§7) e) The test solution was prepared 5 min before the end of the kinase reaction.
(§8) f) After the kinase reaction was completed, 5 μL of diluted streptavidin-XL665 were added to all reaction wells, and immediately the diluted europium-labeled tyrosine kinase substrate antibody detection solution was added after mixing.
(§9) g) The plate was sealed and mixed well. […] The inhibition rate of each well was calculated through the fully active wells and the background signal wells, taking the average value in case of multiple wells. Meanwhile, the professional drawing analysis software PRISM 6.0 was used to fit the half maximal inhibitory concentration (IC50) of each test compound.

AKT3 = biological target: T1, AKT3 (Homo sapiens, UniProt Q9Y243); test: In vitro enzyme activity test (HTRF kinEASE TK), AKT3; type: biochemical; details: enzyme 0.3 ng/well, reaction 50 min
T1 construct: purchased Invitrogen PV3185
T1 sequence (Q9Y243 whole entry): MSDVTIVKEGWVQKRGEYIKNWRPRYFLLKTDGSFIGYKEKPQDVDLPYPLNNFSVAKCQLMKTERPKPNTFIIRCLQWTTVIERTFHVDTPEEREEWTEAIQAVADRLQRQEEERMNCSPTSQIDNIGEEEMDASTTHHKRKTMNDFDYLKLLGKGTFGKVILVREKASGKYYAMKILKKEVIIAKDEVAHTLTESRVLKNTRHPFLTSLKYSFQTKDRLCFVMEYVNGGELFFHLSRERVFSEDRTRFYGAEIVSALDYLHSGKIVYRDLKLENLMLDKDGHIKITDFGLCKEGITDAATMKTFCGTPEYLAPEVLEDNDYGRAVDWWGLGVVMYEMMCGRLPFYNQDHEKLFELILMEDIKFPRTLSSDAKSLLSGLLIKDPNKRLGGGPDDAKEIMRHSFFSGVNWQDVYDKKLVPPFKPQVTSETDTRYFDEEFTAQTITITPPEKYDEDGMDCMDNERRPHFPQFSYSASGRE
Experimental: as §1, §2, §3, §4, §5, §6, §7, §8, §9

Sequence of AKT1 (P31749 whole entry): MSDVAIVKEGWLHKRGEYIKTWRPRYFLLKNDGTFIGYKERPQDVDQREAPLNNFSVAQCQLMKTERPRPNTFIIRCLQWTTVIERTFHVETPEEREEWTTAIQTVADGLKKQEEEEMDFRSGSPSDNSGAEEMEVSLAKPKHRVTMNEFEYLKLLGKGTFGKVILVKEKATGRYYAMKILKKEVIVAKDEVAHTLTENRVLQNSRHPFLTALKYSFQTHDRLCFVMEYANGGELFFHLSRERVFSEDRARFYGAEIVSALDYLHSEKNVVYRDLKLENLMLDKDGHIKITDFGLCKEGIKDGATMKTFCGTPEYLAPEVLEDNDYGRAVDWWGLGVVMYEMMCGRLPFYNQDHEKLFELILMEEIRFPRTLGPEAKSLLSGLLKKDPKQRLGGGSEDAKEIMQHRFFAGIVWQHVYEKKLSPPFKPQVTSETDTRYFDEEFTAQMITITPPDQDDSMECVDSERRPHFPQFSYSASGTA

Compound	IC50 (AKT1) [nM]	IC50 (AKT3) [nM]
CC(C)NC[C@@H](C(=O)N1CCN(c2ncnc3c2[C@@H](C(F)(F)F)CC(=O)N3)CC1)c1ccc(Cl)cc1 (single isomer, unassigned) [Example 16 Isomer 1]	776	139
CC(C)NC[C@@H](C(=O)N1CCN(c2ncnc3c2[C@H](C(F)(F)F)CC(=O)N3)CC1)c1ccc(Cl)cc1 (single isomer, unassigned) [Example 16 Isomer 2]	12	1
CC(C)NC[C@@H](C(=O)N1CCN(c2ncnc3c2C[C@@H](C)C(=O)N3)CC1)c1ccc(Cl)cc1 (single isomer, unassigned) [Example 19 Isomer 1]	82	18
CC(C)NC[C@@H](C(=O)N1CCN(c2ncnc3c2C[C@H](C)C(=O)N3)CC1)c1ccc(Cl)cc1 (single isomer, unassigned) [Example 19 Isomer 2]	25	9.1
CC(C)NC[C@@H](C(=O)N1CCN(c2ncnc3c2[C@H](C)OC(=O)N3)CC1)c1ccc(Cl)cc1 (single isomer, unassigned) [Example 23 Isomer 1]	1.5	0.19
CC(C)NC[C@@H](C(=O)N1CCN(c2ncnc3c2[C@@H](C)OC(=O)N3)CC1)c1ccc(Cl)cc1 (single isomer, unassigned) [Example 23 Isomer 2]	201	42
CC(C)NC[C@@H](C(=O)N1CCN(c2ncnc3c2[C@H](C)OC(=O)N3)CC1)c1ccc(Cl)cc1 (single isomer, unassigned) [Example 24 Isomer 1]	354	61
CC(C)NC[C@@H](C(=O)N1CCN(c2ncnc3c2N(C)CC(=O)N3)[C@H]2C[C@H]21)c1ccc(Cl)cc1 (single isomer, unassigned) [Example 27 Isomer 1]	22	0.48
CC(C)NC[C@@H](C(=O)N1C2CCC1CN(c1ncnc3c1[C@H](C)OC(=O)N3)C2)c1ccc(Cl)cc1 (single isomer, unassigned) [Example 32 Isomer 1]	0.63	0.41
CC(C)NC[C@@H](C(=O)N1C2CCC1CN(c1ncnc3c1[C@@H](C)OC(=O)N3)C2)c1ccc(Cl)cc1 (single isomer, unassigned) [Example 32 Isomer 2]	25	9.8
CC(C)NC[C@@H](C(=O)N1CC2CCC(C1)N2c1ncnc2c1[C@H](C)OC(=O)N2)c1ccc(Cl)cc1 (single isomer, unassigned) [Example 33 Isomer 1]	1.6	0.2
CC(C)NC[C@@H](C(=O)N1CC2CCC(C1)N2c1ncnc2c1[C@@H](C)OC(=O)N2)c1ccc(Cl)cc1 (single isomer, unassigned) [Example 33 Isomer 2]	260	55
CC(C)NC[C@@H](C(=O)N1CCN(c2ncnc3c2[C@H](C)OC(=O)N3)[C@@H]2C[C@@H]21)c1ccc(Cl)cc1 (single isomer, unassigned) [Example 34 Isomer 1]	186	45
CC(C)NC[C@@H](C(=O)N1CCN(c2ncnc3c2[C@@H](C)OC(=O)N3)[C@@H]2C[C@@H]21)c1ccc(Cl)cc1 (single isomer, unassigned) [Example 34 Isomer 2]	613	89
CC(C)NC[C@@H](C(=O)N1CCN(c2ncnc3c2[C@@H](C)OC(=O)N3)[C@H]2C[C@H]21)c1ccc(Cl)cc1 (single isomer, unassigned) [Example 34 Isomer 3]	429	232
CC(C)NC[C@@H](C(=O)N1CCN(c2ncnc3c2[C@@H]2C[C@@H]2C(=O)N3)CC1)c1ccc(Cl)cc1 (single isomer, unassigned) [Example 40 Isomer 1]	14	12
CC(C)NC[C@@H](C(=O)N1CCN(c2ncnc3c2[C@H]2C[C@H]2C(=O)N3)CC1)c1ccc(Cl)cc1 (single isomer, unassigned) [Example 40 Isomer 2]	82	61
